Experimental data: US20210207099A1, “METHODS AND COMPOSITIONS FOR GENERATING CELLS OF ENDODERMAL LINEAGE AND BETA CELLS AND USES THEREOF” (priority 2018, published 2021)

Assays:
Stage 6 cells [1] = assay: Perifusion GSIS with sequential secretagogue challenges; type: cell-based, human; conditions: for insulin secretion during second challenge, secretagogue added to 20 mM glucose: 30 mM KCL, 20 mM L-Arginine, 300 μM Tolbutamide, 100 μM IBMX, 10 nM Extendin-4
Description: The system used a high precision 8-channel dispenser pump (ISMATEC; ISM931C) in conjunction with 0.015″ inlet and outlet two-stop tubing (ISMATEC; 070602-04i-ND) connected to 275-μl cell chamber (BioRep; Pen-Chamber) and dispensing nozzle (BioRep; PERI-NOZZLE) using 0.04″ connection tubbing (BioRep; Peri-TUB-040). Solutions, tubing, and cells were maintained at 37° C. in a water bath. Stage 6 clusters and cadaveric human islets were washed with KRB twice and resuspended in 2 mM glucose KRB. Cells were then loaded onto a Biorep perifusion chamber sandwiched between two layers of Bio-Gel P-4 polyacrylamide beads (Bio-Rad; 150-4124). Cells were perfused with 2 mM glucose KRB for 90 min prior to sample collection for equilibration. For single high glucose challenges, sample collection was started with cells exposed to 2 mM glucose KRB for 12 min, followed by 24 min of 20 mM glucose KRB, and back to 2 mM glucose KRB for an additional 12 min. For multiple secretagogue challenges, sample collection was started with cells exposed to 2 mM glucose KRB for 6 min, followed by 12 min of 20 mM glucose KRB, 6 min 2 mM glucose KRB, 12 min of 20 mM glucose KRB plus treatment, and finally 6 min of 2 mM glucose KRB. Treatments with multiple secretagogues were as follows: 20 mM glucose only, 10 nM Extendin-4 (MilliporeSigma; E7144), 100 μM IBMX (MilliporeSigma; 15879), 300 μM Tolbutamide (MilliporeSigma; T0891), 20 mM L-Arginine (MilliporeSigma; A5006), and 30 mM KCL (Thermo Fisher; BP366500). Effluent was collected at a 100 μl/min flow rate with 2-4 min collection points. After sample collection, clusters were collected and lysed in 10 mM Tris (MilliporeSigma; T6066), 1 mM EDTA, and 0.2% Triton-X 100 solution and DNA was quantified using Quant-iT Picogreen dsDNA assay kit (Invitrogen; P7589). Insulin secretion was quantified using the Human Insulin Elisa kit.

Stage 5 cells = tested on: Stage 5 cells
Description: To initiate differentiation, undifferentiated cells were single-cell dispersed using Accutase and seeded at 6×10^5 cells/mL in mTeSR1+10 μM Y27632 in a 30-ml spinner flask. Cells were then cultured for 72 hr in mTeSR1 and then cultured in the following differentiation media. Stage 1 (3 days): S1 media+100 ng/ml Activin A (R&D Systems; 338-AC)+3 μM Chir99021 (Stemgent; 04-0004-10) for 1 day. S1 media+100 ng/ml Activin A for 2 days. Stage 2 (3 days): S2 media+50 ng/ml KGF (Peprotech; AF-100-19). Stage 3 (1 day): S3 media+50 ng/ml KGF+200 nM LDN193189 (Reprocell; 040074)+500 nM PdBU (MilliporeSigma; 524390)+2 μM Retinoic Acid (MilliporeSigma; R2625)+0.25 μM Sant1 (MilliporeSigma; S4572)+10 μM Y27632. Stage 4 (5 days): S4 media+5 ng/mL Activin A+50 ng/mL KGF+0.1 μM Retinoic Acid+0.25 μM SANT1+10 μM Y27632. Stage 5 (7 days): S5 media+10 μM ALK5i II (Enzo Life Sciences; ALX-270-445-M005)+20 ng/mL Betacellulin (R&D Systems; 261-CE-050)+0.1 μM Retinoic Acid+0.25 μM SANT1+1 μM T3 (Biosciences; 64245)+1 μM XXI (MilliporeSigma; 595790). Stage 6 (7-35 days): ESFM.
(§1) Assays were performed by collecting ˜20-30 stage 6 clusters or cadaveric human islets, washed twice with KRB buffer (128 mM NaCl, 5 mM KCl, 2.7 mM CaCl2) 1.2 mM MgSO4, 1 mM Na2HPO4, 1.2 mM KH2PO4, 5 mM NaHCO3, 10 mM HEPES (Gibco; 15630-080), and 0.1% BSA), resuspended in 2 mM glucose KRB, and placed into transwells (Corning; 431752) in 24-well plates. Clusters were incubated at 2 mM glucose KRB for a 1 hr equilibration. The transwell was then drained and transferred into a new 2 mM glucose KRB well, discarding the old KRB solution. Clusters were again incubated for 1 hr at low glucose and then the transwell is drained and transferred into a new 2, 5.6, 11.1, or 20 mM glucose KRB well, retaining the old 2 mM glucose KRB. Clusters were then incubated for 1 hr at high glucose and then the transwell was drained and the old glucose KRB was retained. The retained KRB was run with the Human Insulin Elisa (ALPCO; 80-INSHU-E10.1) to quantify insulin secretion. The cells were single-cell dispersed by TrypLE treatment, counted on a Vi-Cell XR, and viable cell counts used to normalize insulin secretion.
Clusters were single-cell dispersed with TrypLE, fixed with 4% paraformaldehyde for 30 min at 4° C., blocked and permeabilized with staining buffer for 30 min at 4° C., incubated with primary antibodies in staining buffer overnight at 4° C., incubated with secondary antibodies in staining buffer for 2 hr at 4° C., resuspended in staining buffer, and analyzed on an LSRII (BD Biosciences) or X-20 (BD Biosciences). Dot plots and percentages were generated using FlowJo. All antibodies were used at 1:300 dilution except where noted. The antibodies used were: rat-anti-C-peptide, mouse-anti-nkx6.1 (1:100), mouse-anti-glucagon, rabbit-anti-somatostatin, rabbit-anti-chromogranin A (1:1000), goat-anti-pdx1, anti-rat-alexa fluor 488, anti-mouse-alexa fluor 647 (Invitrogen; a31571), anti-rabbit-alexa fluor 647 (Invitrogen; a31573), anti-goat-alexa fluor 647 (Invitrogen; a21447), anti-rabbit-alexa fluor 488 (Invitrogen; a21206).
RNA was extracted using the RNeasy Mini Kit (Qiagen; 74016) with DNase treatment (Qiagen; 79254), and cDNA was synthesized using High Capacity cDNA Reverse Transcriptase Kit (Applied Biosystems; 4368814). Real-time PCR reactions were performed in PowerUp SYBR Green Master Mix (Applied Biosystems; A25741) on a StepOnePlus (Applied Biosystems) and analyzed using ΔΔCt methodology. TBP was used as a normalization gene.

Stage 6 cells [2] = tested on: Stage 6 cells
Description: as §1

[3] = tested on: TGFβ signaling (phosphorylated SMAD); assay: Western blot of SMAD 2/3 phosphorylation in Stage 6 cells; type: cell-based, human; conditions: Alk5i versus DMSO
Description: Protein was extracted from cell clusters after washing with PBS by placing in western blot lysis buffer consisting 50 mM HEPES, 140 mM NaCl (MilliporeSigma; 7647-14-5), 1 mM EDTA (MilliporeSigma, 1233508), 1% Triton X-100, 0.1% Na-deoxycholate (MilliporeSigma: D6750), 0.1% SDS (ThermoScientific; 24730020), 1 mM Na3VO4 (MilliporeSigma; 450243), 10 mM NaF (MilliporeSigma; S7920), and 1% Protease Inhibitor Cocktail (MilliporeSigma; p8340), incubating on a shaker for 15 min at 4° C., and centrifuging at 10000 RCF for 10 min at 4° C. Protein amount was quantified with the Pierce BCA Protein Assay (Thermo Scientific; 23228). Protein (30 μg) was loaded onto a 4-20% gradient polyacrylamide gel (Invitrogen; SP04200BOX), resolved by electrophoresis, and transferred onto a 0.45 μm nitrocellulose membrane (BioRad; 1620115). The nitrocellulose membrane was blocked with Blotting Grade Blocker (BioRad; 170-6404) and incubated with rabbit-anti-phospho-SMAD⅔ 1:1000 (Cell Signaling Technologies; 8828) and rabbit-anti-Actin 1:1000 (Santa Cruz Biotechnology; SC1616) antibodies in blocker overnight at 4° C. Membrane was washed and stained with rabbit secondary antibody 1:2500 (Jackson Immuno Research Laboratories; 211-032-171) in blocker for 2 hr at 4° C. and developed using SuperSignal West Femto (Thermo Scientific; 34096). Images were taken on an Odyssey FC (Li-COR). After imaging, the nitrocellulose membrane was stripped using Restore Western Blot Stripping Buffer (Thermo Scientific; 21059), incubated with rabbit-anti-SMAD⅔ (Cell Signaling Technologies; 8685) antibody overnight at 4° C., washed and stained with rabbit secondary antibody 1:2500 in blocker for 2 hr 4° C., developed using SuperSignal West Femto, and imaged using the Odyssey FC.

plated stage 4 cells = assay: qRT-PCR and immunostaining of plated stage 4 cells treated with cytoskeletal modifying compounds; type: cell-based, human
Description: For experiments investigating the effects of plating pancreatic progenitors, cells were differentiated with the suspension protocol for stages 1-3. At the end of stage 3, clusters were single cell dispersed with TrypLE and plated onto tissue culture plates coated with various ECM proteins at 0.625×10^6 cells/cm^2. Differentiation media for the remainder of this hybrid protocol were the same as for the suspension protocol with the exception that Y-27632 and Activin A were omitted on days 2-5 of stage 4. Additional compounds were added as indicated in each experiment: 1 μM latrunculin A (Cayman Chemical, 10010630), 1 μM latrunculin B (Cayman Chemical, 10010631), 1 μM cytochalasin D (MilliporeSigma, C2618), 1 μM jasplakinolide (Cayman Chemical, 11705), 10 μM blebbistatin (MilliporeSigma, 203389), 1 μM nocodazole (Cayman Chemical, 13857), 1 μM Y-15 (Cayman Chemical, 14485), 10 μM Y-27632, and 10 μM GDC-0994 (Selleckchem, S7554). A variety of ECM coatings were initially tested with this plating methodology, including collagen I (Corning, 354249), collagen IV (Corning, 354245), fibronectin (Gibco, 33016-015), vitronectin (Gibco, A14700), matrigel (Corning, 356230), gelatin (Fisher, G7-500), and laminins 111, 121, 211, 221, 411, 421, 511, and 521 (Biolamina, LNKT-0201). All subsequent experiments with this hybrid protocol were performed on collagen I.
Brightfield images were taken with a Leica DMi1 inverted light microscope, and fluorescence images were captured with a Nikon A1Rsi confocal microscope. For immunostaining, cells were fixed with 4% paraformaldehyde (PFA) at room temperature for 30 minutes. They were then blocked and permeabilized for 45 minutes at room temperature with an immunocytochemistry (ICC) solution consisting of 0.1% triton X (Acros Organics, 327371000) and 5% donkey serum (Jackson Immunoresearch, 017000-121) in PBS (Corning, 21-040-CV). Samples were then incubated with primary antibodies diluted in ICC solution overnight at 4° C., washed with ICC, incubated with secondary antibodies diluted in ICC for 2 hours at room temperature, and stained with DAPI for 15 minutes at room temperature. For histological sectioning, whole SC-β cell clusters generated with the planar protocol and mouse kidneys containing transplanted cells were fixed overnight with 4% PFA at 4° C. The in vitro clusters were also embedded in Histogel (Thermo Scientific, hg-4000-012). These samples were then paraffin-embedded and sectioned by the Division of Comparative Medicine (DCM) Research Animal Diagnostic Laboratory Core at Washington University in St. Louis. Paraffin was removed from sectioned samples with Histoclear (Thermo Scientific, C78-2-G), and antigen retrieval was carried out in a pressure cooker (Proteogenix, 2100 Retriever) with 0.05 M EDTA (Ambion, AM9261). Slides were blocked and permeabilized with ICC solution for 45 minutes, incubated with primary antibodies in ICC solution overnight at 4° C., and incubated with secondary antibodies for 2 hours at room temperature. Slides were then sealed with DAPI Fluoromount-G (SouthernBiotech, 0100-20).
RNA was extracted from either whole clusters or cells directly on the plate with the RNeasy Mini Kit (Qiagen, 74016). Samples were treated with a DNAse kit (Qiagen, 79254) during extraction. The High Capacity cDNA Reverse Transcriptase Kit (Applied Biosystems, 4368814) was used to synthesize cDNA on a thermocycler (Applied Biosystems, A37028). The PowerUp SYBR Green Master Mix (Applied Biosystems, A25741) was used on a StepOnePlus (Applied Biosystems), and real time PCR results were analyzed using a ΔΔCt methodology. TBP and GUSB were both used as housekeeping genes. Primer sequences were as follows.

## CC(C)Cn1c(=O)n(C)c(=O)c2[nH]cnc21 [3-isobutyl-1-methylxanthine]
Stage 6 cells [1]
  insulin secretion during second challenge, secretagogue added to 20 mM glucose: increased insulin secretion over high glucose alone

## Cc1cccc(-c2[nH]ncc2-c2ccc3ncccc3n2)n1 [Alk5i, Alk5 inhibitor type II]
Stage 5 cells; Alk5i during Stage 5, Stage 6 without Alk5i nor cluster resizing, 20 mM glucose
  insulin secretion after further 7 d in Stage 6: substantially higher in cells treated with Alk5i during Stage 5
Stage 5 cells; Alk5i omission during Stage 5
  INS and GCG gene expression: decreased with Alk5i omission
  SST expression: slightly increased
Stage 5 cells; omitting Alk5i during Stage 5
  fraction of cells co-expressing C-peptide and NKX6-1: decreased by omitting Alk5i
  fraction of cells differentiated to a C-peptide+ phenotype: decreased by omitting Alk5i
  fraction of cells differentiated to endocrine cells (CHGA+): unchanged
Stage 5 cells; without Alk5i during Stage 5
  expression of NKX6-1 and PDX1: reduced without Alk5i
Stage 6 cells [2]; Alk5i during Stage 6
  GSIS in a static assay with inclusion during Stage 6: relatively weak but statistically significant GSIS
  insulin secretion in the dynamic GSIS assay: dramatically reduced insulin secretion
Stage 6 cells [2]; DMSO versus Alk5i during Stage 6
  proinsulin/insulin ratio: remained similar
Stage 6 cells [2]; DMSO- versus Alk5i-treated cells, Stage 6
  fraction of cells expressing pancreatic endocrine markers, including C-peptide: remained similar
Stage 6 cells [2]; removal of Alk5i during Stage 6 versus treatment
  insulin content: increased with removal of Alk5i
[3]
  phosphorylated SMAD: diminished phosphorylated SMAD

## [Cl-].[K+] [KCl]
Stage 6 cells [1]; 30 mM KCL with 20 mM glucose
  response of Stage 6 cells to KCl challenge compared to human islets: stronger than in human islets
Stage 6 cells [1]
  insulin secretion during second challenge, secretagogue added to 20 mM glucose: largest increases

## N=C(N)NCCC[C@H](N)C(=O)O [L-Arginine]
Stage 6 cells [1]
  insulin secretion during second challenge, secretagogue added to 20 mM glucose: largest increases

## C/C1=C/C(=O)O[C@@H]2C[C@@H](CC[C@H](C)/C=C\CC1)O[C@@](O)([C@@H]1CSC(=O)N1)C2 [Latrunculin B]
Plated stage 4 cells; added during stage 4, qRT-PCR
  dose response of NEUROG3 expression: increased NEUROG3 expression in a dose-dependent manner
Plated stage 4 cells; plated HUES8, stage 4
  concentration required relative to latrunculin A to achieve a similar effect on NEUROG3: ~10 ×

## CCCCNC(=O)NS(=O)(=O)c1ccc(C)cc1 [Tolbutamide]
Stage 6 cells [1]
  insulin secretion during second challenge, secretagogue added to 20 mM glucose: increased insulin secretion over high glucose alone

## C/C1=C\[C@H](C)C[C@H](C)OC(=O)C[C@H](c2ccc(O)cc2)NC(=O)[C@@H](Cc2c(Br)[nH]c3ccccc23)N(C)C(=O)[C@H](C)NC(=O)[C@@H](C)C1 [jasplakinolide]
Plated stage 4 cells; added to pancreatic progenitors during reaggregation after dispersion
  premature NEUROG3 expression in reaggregated clusters: attenuated premature NEUROG3 expression

## exendin-4
Stage 6 cells [1]
  insulin secretion during second challenge, secretagogue added to 20 mM glucose: increased insulin secretion over high glucose alone
